Test results published in patent US8940863B2, “Selective anticancer chimeric peptides which bind neuropilin receptor” (Stella Pharma Corporation, priority 2008, dated 2015).
Values belong to the compound of their own block, whether it stands above or below them. Non-standard residues stand in square brackets, D forms with d. Residues, ends and D or L forms follow the SMILES beside them.

Assays:
T47D [1] = assay: Cell viability assay (WST-8); format: cell-based, human; details: for IC50: 72 h
Description: (§1) Correlation between IC50 values was observed.

BxPC-3 = details: 72 h
LNCaP = details: for IC50: 72 h
MRC-5 = details: 72 h
HEK293 = details: 72 h
OE19 = details: 72 h
U937 = details: 72 h
COLO587 = assay: Cell viability assay (WST-8); format: cell-based
Description: as §1

[2] = tested on: PE cell (pancreatic epidermal); assay: Cell viability assay (WST-8); format: cell-based; details: 72 h
Description: as §1

SN-19 = assay: Cell viability assay (WST-8); format: cell-based
Description: as §1

[3] = tested on: HC cell (hepatocyte cell); assay: Cell viability assay (WST-8); format: cell-based, human; details: 72 h
Description: as §1

T47D [4] = assay: Annexin V and caspase 3,7 flow cytometry; format: cell-based, human; details: 10 μM, two hours
Description: T47D and PE cells were incubated with TfR-lytic chimeric peptide (10 μM) and lytic peptide (10 μM) for two hours. Annexin V (FIG. 26A) and caspase 3,7 activity (FIG. 26B) were detected in the green channel, and propidium iodide staining was detected in the red channel, and flow cytometry analysis was performed. In T47D cells treated with TfR-lytic chimeric peptide, the ratio of the right half panel showing Annexin V-positive cells and caspase 3,7-activated cells increased.

PE cells (normal cells) = assay: Annexin V and caspase 3,7 flow cytometry; format: cell-based; details: 10 μM, two hours
T47D breast cancer cells = assay: Membrane permeabilization (calcein); format: cell-based, human; details: 10 μM, 0 to 15 minutes
Description: Furthermore, after addition of TfR-lytic chimeric peptide at concentration of 10 μM, the cells in calcein solution were observed after 0 minute, five minutes, 10 minutes and 15 minutes.

T47D [5] = assay: Short-exposure killing of cancer cells (WST-8); format: cell-based, human; details: 1 to 180 minutes exposure
Description: The cells were further cultured for 72 hours.

- IC50 (T47D [1]): 6.4 µM
- IC50 (BxPC-3): 12.2 µM
- IC50 (LNCaP): 8.9 µM
- IC50 (OE19): 7.1 µM
- IC50 (U937): 3.5 µM
SMILES: CC(C)C[C@H](NC(=O)[C@H](CC(C)C)NC(=O)[C@@H](CCCCN)NC(=O)[C@@H](CCCCN)NC(=O)[C@H](CC(C)C)NC(=O)[C@@H](CC(C)C)NC(=O)[C@H](CCCCN)NC(=O)[C@H](CC(C)C)NC(=O)[C@@H](CC(C)C)NC(=O)[C@H](CC(C)C)NC(=O)[C@H](CCCCN)NC(=O)CNC(=O)CNC(=O)CNC(=O)[C@H](CCCNC(=N)N)NC(=O)[C@@H]1CCCN1C(=O)[C@@H]1CCCN1C(=O)[C@H](CC(C)C)NC(=O)[C@H](Cc1c[nH]c2ccccc12)NC(=O)[C@@H](NC(=O)[C@H](C)N)[C@@H](C)O)C(=O)N[C@@H](CCCCN)C(=O)N[C@H](CC(C)C)C(=O)N[C@@H](CC(C)C)C(=O)N[C@@H](CCCCN)C(=O)N[C@@H](CCCCN)C(=O)N[C@@H](CCCCN)C(=O)O [VEGFR2-Lytic] (H-ATWLPPRGGGKL[dL]LK[dL]L[dK][dK]LLK[dL]LKKK-OH; N-terminus and C-terminus assumed)
- IC50 (MRC-5): > 20 µM
- IC50 (HEK293): > 20 µM

- IC50 (COLO587; 72 h): 6.9 µM
- IC50 ratio Lytic/TfR-lytic (COLO587; COLO587): 2.0
- IC50 (T47D [1]): 4.8 µM
- IC50 ratio Lytic/TfR-lytic (T47D [1]; T47D): 3.8
- IC50 (U251; 72 h): 6.8 µM
- IC50 ratio Lytic/TfR-lytic (U251; U251): 2.8
- IC50 (LNCaP): 6.2 µM
- IC50 ratio Lytic/TfR-lytic (LNCaP; LNCaP): 2.7
- IC50 (MDA-MB-231; 72 h): 6.7 µM
- IC50 ratio Lytic/TfR-lytic (MDA-MB-231; MDA-MB-231): 4.4
- IC50 (SK-BR-3; 72 h): 5.3 µM
- IC50 ratio Lytic/TfR-lytic (SK-BR-3; SK-BR-3): 5.0
SMILES: CSCC[C@H](NC(=O)[C@@H]1CCCN1C(=O)[C@@H]1CCCN1C(=O)[C@H](CCCNC(=N)N)NC(=O)[C@H](Cc1c[nH]cn1)NC(=O)[C@@H](N)[C@@H](C)O)C(=O)N[C@@H](Cc1c[nH]c2ccccc12)C(=O)N[C@@H](CO)C(=O)N1CCC[C@H]1C(=O)N[C@H](C(=O)N[C@@H](Cc1c[nH]c2ccccc12)C(=O)N1CCC[C@H]1C(=O)NCC(=O)NCC(=O)NCC(=O)N[C@@H](CCCCN)C(=O)N[C@@H](CC(C)C)C(=O)N[C@H](CC(C)C)C(=O)N[C@@H](CC(C)C)C(=O)N[C@@H](CCCCN)C(=O)N[C@H](CC(C)C)C(=O)N[C@@H](CC(C)C)C(=O)N[C@H](CCCCN)C(=O)N[C@H](CCCCN)C(=O)N[C@@H](CC(C)C)C(=O)N[C@@H](CC(C)C)C(=O)N[C@@H](CCCCN)C(=O)N[C@H](CC(C)C)C(=O)N[C@@H](CC(C)C)C(=O)N[C@@H](CCCCN)C(=O)N[C@@H](CCCCN)C(=O)N[C@@H](CCCCN)C(=O)O)C(C)C [TfR-lytic peptide] (H-THRPPMWSPVWPGGGKL[dL]LK[dL]L[dK][dK]LLK[dL]LKKK-OH; N-terminus and C-terminus assumed)
- IC50 [2]: > 20 µM
- IC50 (SN-19; 72 h): 8.2 µM
- IC50 ratio Lytic/TfR-lytic (SN-19; SN-19): 3.1
- IC50 [3]: > 20 µM
- ratio of Annexin V-positive cells and caspase 3,7-activated cells (T47D [4]): increased
- percentage of Annexin V-positive cells and caspase 3,7-activated cells (PE cells (normal cells)): did not increase
- membrane permeation (T47D breast cancer cells): permeated the membrane was observed
- rapid killing of cancer cells (T47D [5]): rapidly kill T47D cancer cells
- IC50 (MRC-5): > 20 µM
